Data from US20230105869A1, “C5aR INHIBITOR REDUCTION OF URINARY sCD163” (CHEMOCENTRYX, INC., priority 2017, published 2023).
Entries after “also recorded” stand apart in the source; their conditions may differ. Marks after values point to notes of the source that are not given here.

Legend:
urinary sCD163 = assay: Urine sCD163/creatinine ratio (ELISA) in clinical trial of AAV patients; format: in vivo, human; settings: for Urine sCD163/creatinine, Geo mean: all on IV cyclophosphamide or rituximab; for Time course of decrease of urine sCD163 (sCD163/creatinine), in words: versus baseline
Method: The clinical trial results presented herein comprised 3 patient groups: (1) Full dose prednisone (60 mg), standard of care; (2) Avacopan 30 mg b.i.d. plus low dose prednisone (20 mg); (3) Avacopan 30 mg b.i.d. plus no prednisone. All patients received either IV cyclophosphamide or IV rituximab. sCD163 (ELISA) and creatinine were measured pre-dose, and at days 8, 15, 29, 57, and 85. The groupings are further described below in Table 1. [table] Mid-stream urine samples were collected with a clean catch method and were shipped to the central laboratory refrigerated the same day for analysis of creatinine, albumin and UACR. Another fraction of urine was centrifuged at 1200 g and 2-8° C. for 10 minutes. Supernatant was aliquoted into cryovials and stored at -70° C. until analysis. Urine sCD163 and MCP-1 were analyzed by ELISA in complete subject sets using ELISA kits from R&D systems. Urine sCD163/creatinine ratios, UACR, and urine MCP-1/creatinine ratios were log transformed for normal distribution. Change from baseline in urine sCD163/creatinine ratios for each time point within group was analyzed by the mixed effects model for repeated measures. P<0.05 was considered as statistically significant.

[1] = test system: ANCA-associated vasculitis (AAV); assay: Disease activity and health-related quality of life in clinical trial of AAV patients; format: in vivo, human
Method: The clinical trial results presented herein comprised 3 patient groups: (1) Full dose prednisone (60 mg), standard of care; (2) Avacopan 30 mg b.i.d. plus low dose prednisone (20 mg); (3) Avacopan 30 mg b.i.d. plus no prednisone. All patients received either IV cyclophosphamide or IV rituximab. sCD163 (ELISA) and creatinine were measured pre-dose, and at days 8, 15, 29, 57, and 85. The groupings are further described below in Table 1. [table] […] Panel A plots the Birmingham Vasculitis Activity Score; Panel B plots the Urinary Albumin: creatinine Ratio; Panel C plots the Health-related quality-of-life measurement EQ-5D-5L visual analog scale , expressed as mean +/- SEM over the treatment period; Panel D and Panel E plot the health-related quality-of-life measurement Medical Outcomes Study SF-36 version 2 Physical Functioning and Role Emotional components, expressed as mean +/- SEM over the treatment period.

[2] = D8, Avacopan 30 mg BID where given
[3] = D15, Avacopan 30 mg BID where given
[4] = D29, Avacopan 30 mg BID where given
[5] = D57, Avacopan 30 mg BID where given
[6] = D85, Avacopan 30 mg BID where given

Row | SMILES | Urine sCD163/creatinine, Geo mean (urinary sCD163; [2]) | Urine sCD163/creatinine, Geo mean (urinary sCD163; [3]) | Urine sCD163/creatinine, Geo mean (urinary sCD163; [4]) | Urine sCD163/creatinine, Geo mean (urinary sCD163; [5]) | Urine sCD163/creatinine, Geo mean (urinary sCD163; [6]) | Time course of decrease of urine sCD163 (sCD163/creatinine), in words (urinary sCD163) | Disease activity (Birmingham Vasculitis Activity Score), in words ([1]; FIG. 1A) | Health-related quality of life (EQ-5D-5L, SF-36 v2), in words ([1]; FIGS. 1C-1E) | Time course of decrease of urine sCD163 (sCD163/creatinine), in words (urinary sCD163; listed as full-dose prednisone)
1 | Cc1ccc(NC(=O)[C@H]2CCCN(C(=O)c3c(C)cccc3F)[C@H]2c2ccc(NC3CCCC3)cc2)cc1C(F)(F)F [Avacopan] | 180* ng/mmole | 165* ng/mmole | 117** ng/mmole | 125* ng/mmole | 97* ng/mmole | reduced sCD163/creatinine markedly by day 8; also recorded: rapid reduction of sCD163; also recorded: decreased within one week | rapid decrease in diseases activity | significant improvement in health-related quality of life | –
2 | C[C@]12C=CC(=O)C=C1CC[C@@H]1[C@@H]2C(=O)C[C@@]2(C)[C@H]1CC[C@]2(O)C(=O)CO [Placebo + FD Prednisone, Prednisone, reference compound] | 300 ng/mmol | 249 ng/mmol | 220 ng/mmol | 116*** ng/mmole | 120** ng/mmole | decreased much later (by week 8) | – | – | did not show improvement in urinary sCD163 until day 57
